These results are taken from publication PMC5055185, “Dual pharmacological inhibition of glutathione and thioredoxin systems synergizes to kill colorectal carcinoma stem cells” (Cancer Medicine, 2016).

The subject of test [1] is CRC cell lines. More on the design: method as in PMID 25591719. To be noted: cited from earlier work.
The test system of test [2] is NRF2 target genes in colorectal CTOSs. As to the kind of experiment: qRT-PCR of NRF2 and TP53 target genes in colorectal CTOSs. It counts as cell-based, human. Conditions: higher dose (auranofin 4, CB83 25, piperlongumine 10 μmol/L) for 24 h. How it is done:
Total RNA was purified using RNAiso Plus (Takara, Osaka, Japan). Reverse transcription was performed using PrimeScript™ with gDNA Eraser (Takara). For quantifying the copy number of each mRNA, we used a StepOne™ Real‐Time PCR System (Applied Biosystems, Waltham, MA) and the Taqman® method. Data were calculated according to the modified delta‐cycle of threshold (ΔCT) method. Normalized Log2 expression was defined as follows: (Log2 expression of a gene of interest) = 30 (arbitrary constant) + (CT of 18S rRNA) − (CT of a gene of interest). We used Log2 parameter for statistical analysis because mRNA expression follows a log‐normal distribution, whereas ΔCT follows normal distribution. A gene‐specific fluorescent probe was designed using a web‐based program (https://qpcr.probefinder.com/organism.jsp). […] Gene‐specific Taqman® probes were purchased from Life Technologies, (Waltham, MA, for Cat#, see Table S1 SpreadSheet2). For PCR, Thunderbird® Probe qPCR mix (Toyobo, Osaka, Japan) was used and the PCR conditions consisted of 40 cycles of two steps (95°C for 15 sec and 60°C for 50 sec).
In order to judge the effect of drug treatments on gene expression, a repeated measures one‐way analysis of variance (ANOVA) was used to determine the variance of Log2 expression from four different groups (untreated, auranofin, CB83, and piperlongumine) using SPSS. Subsequently, the effect of each drug was determined by a paired t test as a post hoc analysis. The P‐values < 0.05 were defined as statistically significant.
In order to estimate NRF2 compensation induced by pharmacological inhibition of TXNRD (auranofin), G6PD (CB83), or GSTπ (piperlongumine), we quantified gene expression of NRF2 target genes. Activation of NRF2 protein was confirmed by NRF2 phosphorylation (Fig. S5A).
On the technique in general: Real-time PCR tracks product formation cycle by cycle.

Test [3] has as its system OUMS‐36 embryonic fibroblasts. Kind of test: intracellular ROS, CellROX Deep Red flow cytometry, OUMS-36. It counts as cell-based, human. Conditions: treated 1 h (menadione 100 μmol/L, 30 min). How it is done:
(§1) In order to estimate the effect of each inhibitor described above, intracellular reactive oxygen species (ROS) were measured using CellROX™ Deep Red reagent (Molecular Probes). Briefly, cells were seeded on 6‐well plates at 1 × 10^6 cells per well. After cells reached 90% confluence, cells were treated with designated reagents for 1 h. CellROX™ Deep Red reagent was added at a final concentration of 5 μmol/L to the culture medium and then incubated for 30 min at 37°C. Subsequently, the medium was removed and the cells were washed with PBS and detached using 0.25% trypsin‐EDTA. The resulting fluorescence was measured using a FACS Calibur flow cytometer (Becton Dickinson, Franklin Lakes, NJ). Menadione (100 μmol/L) was added 30 min before CellROX™ Deep Red reagent treatment as a reference ROS inducer. […] CD44v9 positivity of CTOS cells was analyzed as follows: Cancer spheroids were dispersed with serial treatments of TrypLE™ (20 min, GIBCO) and Accumax™ (10 min, Innovative Cell Technologies, San Diego, CA). Cell surface CD44v9 was stained with CD44v9 antibody (Cosmobio) as well as PE‐conjugated anti‐rat IgG2a (Becton Dickinson). The fluorescence was measured using a FACS Calibur flow cytometer (Becton Dickinson). Since CTOSs contained abundant auto‐fluorescent cells, we defined FL2^+FL1^− cells as authentic PE‐positive (Fig. S4). Thus, CD44v9‐positive rate was defined as FL2^+FL1^−/total live cells and CD44v9‐positive fraction was further gated and split between CD44v9^low and CD44v9^high (Fig. S4), to calculate the mean fluorescent intensity of CD44v9^high fraction.
(§2) One hour after each drug treatment, cells were stained with CellROX DeepRed and intracellular ROS were quantified with FACS. Upper: histogram of fluorescent signal is represented. Lower. representative mean fluorescent intensity scores are shown. Note that without drug treatment (Control), intracellular ROS is higher in OUMS36 and TIG3 (embryonic fibroblasts) but lower in DLD-1 and HCT116 (CRC cell lines). ROS in DLD-1 was increased by auranofin. ROS in HCT116 was increased by all the inhibitors tested. […]

The subject of test [4] is phosphorylated NRF2 in colorectal CTOSs. Kind of test: NRF2 phosphorylation by western blotting, colorectal CTOSs. It counts as cell-based, human. To be noted: 24 hours, Auranofin 2µM, Piperlongumine 5µM, CB83 12.5 µM. How it is done:
From colorectal CTOS, whole‐cell proteins were dissolved with solubilizer (7 mol/L urea, 2 mol/L thiourea, 2% Triton X‐100, Wako) and the entangled genomic DNA was sheared by sonication for 30 min. Procedures for immunoblotting have been described elsewhere 6, 10. Primary antibodies used in this study are as follows: phosphorylated NRF2 from Abcam (#76026) and Histone H3 from Cell Signaling Technologies (#4499, Danvers, MA). Phosphorylation of NRF2 is well correlated with nuclear accumulation in HCCs 6. Representative data are shown in the figures; all experiments were reproduced at least twice with different passage points.
Colorectal CTOSs were incubated with each inhibitor for 24 hours. Whole cell proteins were extracted and each well was loaded with same amount of proteins (40 µg for NRF2 and 10 µg for H3). Phosphorylation of NRF2 was measured by western blotting. Blotting for histone H3 serves as loading control.
(In general: Immunoblotting shows a protein as a band on a membrane.)

For test [5], the system named is HCT116 CRC cell line. As to the kind of experiment: intracellular ROS, CellROX Deep Red flow cytometry, HCT116. It counts as cell-based, human. Conditions: treated 1 h (menadione 100 μmol/L, 30 min). As to the method:
as §1
One hour after each drug treatment, cells were stained with CellROX DeepRed and intracellular ROS were quantified with FACS. Upper: histogram of fluorescent signal is represented. Lower. representative mean fluorescent intensity scores are shown. Note that without drug treatment (Control), intracellular ROS is higher in OUMS36 and TIG3 (embryonic fibroblasts) but lower in DLD-1 and HCT116 (CRC cell lines). ROS in DLD-1 was increased by auranofin. ROS in HCT116 was increased by all the inhibitors tested. Menadione was used as a reference chemical to increase ROS.
Background: In flow cytometry, cells or beads pass a laser one at a time.

For test [6], the system named is TIG‐3 embryonic fibroblasts. As to the kind of experiment: intracellular ROS, CellROX Deep Red flow cytometry, TIG-3. It counts as cell-based, human. Conditions: treated 1 h (menadione 100 μmol/L, 30 min). As to the method: as §1, §2
Test [7] has as its system DLD‐1 CRC cell line. As to the kind of experiment: intracellular ROS, CellROX Deep Red flow cytometry, DLD-1. It counts as cell-based, human. To be noted: treated 1 h (menadione 100 μmol/L, 30 min). As to the method: as §1, with “Since CTOSs contained abundant auto‐fluorescent cells, we defined FL2^+FL1^− cells as authentic PE‐positive (Fig. S4). Thus, CD44v9‐positive rate was defined as FL2^+FL1^−/total live cells and CD44v9‐positive fraction was further gated and split between CD44v9^low and CD44v9^high (Fig. S4), to calculate the mean fluorescent intensity of CD44v9^high fraction.” left out
One hour after each drug treatment, cells were stained with CellROX DeepRed and intracellular ROS were quantified with FACS. […]

In the case of `Cc1ccc(C)c(S(=O)(=O)Nc2ccc(O)c3ccccc23)c1` [CB83], the GSH/GSSG ratios entry in test [1] is “failed to alter”. Moreover, the “NADPH/NADP+ ratios” value in test [1] is “decreased”. For the same compound, the “TXNRD1 mRNA expression change” value in test [2] is “up‐regulated”. Further, the entries for the “intracellular ROS response” value in test [3], in test [5] and in test [6] were “no ROS increase”, “increase of ROS” and “no ROS increase”, respectively. Moreover, the NRF2 phosphorylation result in test [4] is given as “efficiently phosphorylated”.
On to `CC1=CC(=O)c2ccccc2C1=O` [menadione, Menadione], for which the “intracellular ROS response” value is recorded as “increase of ROS” in test [7], “no ROS increase” in test [3], “increase of ROS” in test [5] and “no ROS increase” in test [6].
